From ChEMBL document CHEMBL1132922, “Corticotropin releasing factor (CRF) receptor modulators: progress and opportunities for new therapeutic agents” (J Med Chem, 2000) come the findings set out here.

Data set [1] can be described thus: Plasma administered 1 mg/kg intravenously in rat. Format: ADME, organism-based. Details: dose 1 mg/kg, route intravenous. The conditions noted are these: iv.
The nature of data set [2]: Half life period when administered 1 mg/kg intravenously in rat. On the set-up: dose 1 mg/kg, route intravenous. It counts as ADME, organism-based. The conditions noted are these: in vivo, iv.
Data set [3] addresses T1, Corticotropin-releasing factor receptor 1 (Homo sapiens, UniProt P34998).
T1 sequence (P34998 whole entry): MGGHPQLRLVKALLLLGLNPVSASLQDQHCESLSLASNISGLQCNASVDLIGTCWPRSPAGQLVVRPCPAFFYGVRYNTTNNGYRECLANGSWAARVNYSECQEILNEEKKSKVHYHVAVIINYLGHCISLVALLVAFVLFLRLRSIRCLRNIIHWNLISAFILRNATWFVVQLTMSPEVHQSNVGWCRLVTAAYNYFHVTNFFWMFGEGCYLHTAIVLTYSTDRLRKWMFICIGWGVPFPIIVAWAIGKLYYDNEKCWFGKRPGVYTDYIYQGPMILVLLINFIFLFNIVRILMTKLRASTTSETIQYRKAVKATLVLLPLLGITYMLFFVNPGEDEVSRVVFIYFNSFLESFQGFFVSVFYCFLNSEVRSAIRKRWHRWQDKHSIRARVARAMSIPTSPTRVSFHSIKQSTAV
Put plainly: Compound was tested for the binding affinity to human corticotropin releasing factor 1 (hCRF1) receptors.

Data set [4] concerns the target T1, Corticotropin-releasing factor receptor 1. Put plainly: Antagonist potency in hCRF1 stimulated adenylate cyclase assay. Format: functional.
Data set [5] addresses T2, Corticotropin-releasing factor receptor 2 (Homo sapiens, UniProt Q13324).
T2 sequence (Q13324 whole entry): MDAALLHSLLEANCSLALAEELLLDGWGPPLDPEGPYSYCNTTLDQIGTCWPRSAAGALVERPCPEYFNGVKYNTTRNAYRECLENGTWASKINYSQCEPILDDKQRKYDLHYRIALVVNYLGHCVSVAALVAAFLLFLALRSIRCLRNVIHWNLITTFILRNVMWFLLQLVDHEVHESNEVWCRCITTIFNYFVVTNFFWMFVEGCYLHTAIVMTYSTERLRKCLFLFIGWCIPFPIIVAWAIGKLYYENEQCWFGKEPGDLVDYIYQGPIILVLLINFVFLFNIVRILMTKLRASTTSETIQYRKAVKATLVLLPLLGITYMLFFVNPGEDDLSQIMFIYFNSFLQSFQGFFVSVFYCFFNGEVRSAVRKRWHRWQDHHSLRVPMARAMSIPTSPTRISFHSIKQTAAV
Put plainly: Compound was tested for the binding affinity to human corticotropin releasing factor receptor (hCRF2).

For data set [6], the target named is T3, Corticotropin releasing factor receptor (Rattus norvegicus, UniProt P47866+P35353). Put plainly: Compound was tested for the binding affinity to rat ccorticotropin releasing factor receptor. Format: protein assay.
Data set [7] in a line: Compound was tested for the binding affinity to mouse Corticotropin releasing factor receptor 2 beta.
The species named for data set [8] is Rattus norvegicus. Put plainly: Percent control value is reported, after studying ability to inhibit CRF-stimulated release of ACTH in rats. Details: scale not given: the % may be the effect or the level left. Format: functional.
Data set [9] concerns the target T1, Corticotropin-releasing factor receptor 1. Put plainly: Effective concentration to stimulate the human corticotropin releasing factor receptor using agonist-stimulated adenylate cyclase assay. It counts as functional.
The nature of data set [10]: Pharmacokinetic profile (5 mg/kg) in rat for Oral bioavailability. It counts as ADME, organism-based. The conditions noted are these: in vivo.
Data set [11] addresses T1, Corticotropin-releasing factor receptor 1. Put plainly: Inhibition of corticotropin releasing factor receptor mediated increase in cAMP level using HEK293 cells expressing h-CRF1 receptor. Format: cell-based. On the technique in general: cAMP levels reflect the balance of adenylyl cyclase and phosphodiesterase activity.
The target is the same in data set [12]. Put plainly: Compound was tested for the binding affinity to human corticotropin releasing factor receptor.
Data set [13] is described as follows: Oral bioavailability is reported, after administering 1 mg/kg (intravenously and orally ) to dogs. Format: ADME, organism-based, Canis lupus familiaris. The following applies: dog, in vivo.
The target of data set [14] is T1, Corticotropin-releasing factor receptor 1. Put plainly: Inhibition of corticotropin releasing factor receptor mediated increase in adenylate cyclase activity was evaluated.
A short description of data set [15]: oral pharmacokinetic parameter, Half-life period was reported in dogs. It counts as ADME, organism-based, Canis lupus familiaris. The conditions noted are these: dog, in vivo.
Data set [16] in a line: (§1) oral pharmacokinetic parameter, Half-life period was reported in rats. The following applies: rat, in vivo. It counts as ADME, organism-based.
The nature of data set [17]: oral pharmacokinetic parameter, Oral bioavailability was reported in rats. The conditions noted are these: rat, in vivo. Format: ADME, organism-based.
Data set [18] is described as follows: oral pharmacokinetic parameter, Maximum concentration was reported in dogs. The following applies: dog, in vivo. Details: route oral. It counts as ADME, organism-based, Canis lupus familiaris.
Data set [19] in a line: as §1. Format: ADME, organism-based. The following applies: rat, in vivo. This is another data set of the same source.
Data set [20] can be described thus: oral pharmacokinetic parameter, Oral bioavailability was reported in dogs. The following applies: dog, in vivo. Format: ADME, organism-based, Canis lupus familiaris.
For data set [21], the target named is T3, Corticotropin releasing factor receptor. Put plainly: (§2) Compound was tested for the binding affinity to rat corticotropin releasing factor receptor. It counts as protein assay.
The target is the same in data set [22]. Put plainly: Effective concentration to inhibit CRF-mediated increase in adenylate cyclase. It counts as protein assay.
The target is the same in data set [23]. The description is as §2. It counts as protein assay. The source holds these as a separate data set.
Data set [24] is filed under the species Rattus norvegicus. Put plainly: Effective concentration to inhibit adenocorticotropic hormone (ACTH) release from primary cultures of rat pituitary cells. It counts as functional, cell-based. The following applies: Pituitary gland cell.
The nature of data set [25]: Compound was tested for bioavailability when administered perorally. It counts as ADME, organism-based. The conditions noted are these: eutheria, in vivo, po.
Data set [26] can be described thus: Compound was tested for the max. conc. when administered perorally(po) 30 mg/kg. Format: ADME, organism-based. Details: dose 30 mg/kg, route oral. The conditions noted are these: in vivo.
Data set [27] can be described thus: Compound was tested for bioavailability when administered intraperitoneally. It counts as ADME, organism-based. The following applies: eutheria, in vivo, ip.
Data set [28] can be described thus: Compound was tested for the max. conc. when administered intraperitoneally (ip) 30 mg/kg. The following applies: in vivo. Format: ADME, organism-based. On the set-up: dose 30 mg/kg, route intraperitoneal.
Data set [29] deals with T3, Corticotropin releasing factor receptor. Put plainly: Compound was tested for the binding affinity to rat Corticotropin releasing factor (rCRF) receptors. Format: protein assay.
For data set [30], the system named is Rattus norvegicus. Put plainly: Dose (ip) that completely reverses the r/h-CRF-enhanced acoustic startle of rats. Format: functional.
For data set [31], the species on record is Rattus norvegicus. Put plainly: 50% inhibitory concentration to antagonize ACTH secretion. It counts as functional. The conditions noted are these: read-out: ID50 (the source's name).

In general, clearance refers to a measure of how efficiently the substance is removed, as volume per time. What is called half-life is the time in which the quantity being followed falls by half. Consider `COCCN(CCOC)c1nc(C)nc2c1nnn2-c1ccc(C(C)C)cc1Br`, for which the clearance in data set [1] was 3 L/h/kg. The compound also gave a half-life in [2] of 7.6 h.

What is called Ki is a measure of affinity in units of concentration, obtained from inhibition or displacement. One may read the EC50 as the concentration giving half of the maximal effect. Take `CCCN(CCC)c1cc(C)nc2c(-c3ccc(OC)cc3OC)c(C)nn12`: the inhibition constant (Ki) in data set [3] was 0.0028 µM; in data set [5] it was greater than 10 µM. The EC50 in [4] turned out to be 0.142 µM.

For the compound `CO[C@@]12C(COC(N)=O)C3=C(C(=O)C(C)=C(NCCc4ccco4)C3=O)N1CC1NC12` (some centres not stated), the Ki came out at 0.11 µM in [6] and 0.02 µM in [7]. The compound further showed a Control in the data set filed under Rattus norvegicus [8] of 50%.

For `CC[C@H](C)[C@H](NC(=O)[C@@H](NC(=O)[C@H](CC(=O)O)NC(=O)[C@H](CC(C)C)NC(=O)[C@H](CC(C)C)NC(=O)[C@H](CC(C)C)NC(=O)[C@H](CCCNC(=N)N)NC(=O)[C@H](CC(N)=O)NC(=O)[C@H](CC(N)=O)NC(=O)[C@H](C)NC(=O)[C@H](C)NC(=O)[C@H](CCC(N)=O)NC(=O)[C@H](CCC(N)=O)NC(=O)[C@H](CCCCN)NC(=O)[C@H](CCC(=O)O)NC(=O)[C@H](CCCCN)NC(=O)[C@H](CCC(=O)O)NC(=O)[C@H](CCC(N)=O)NC(=O)[C@H](CCCCN)NC(=O)[C@H](CCC(=O)O)NC(=O)[C@@H](NC(=O)[C@H](CCC(=O)O)NC(=O)[C@@H](NC(=O)[C@H](CCSC)NC(=O)[C@H](CCCCN)NC(=O)[C@H](CCCNC(=N)N)NC(=O)[C@H](CC(C)C)NC(=O)[C@H](CC(C)C)NC(=O)[C@H](Cc1c[nH]cn1)NC(=O)[C@H](N)Cc1ccccc1)[C@@H](C)CC)[C@@H](C)CC)[C@@H](C)O)C(N)=O`, in data set [9], the concentration for a half-maximal effect (EC50) amounted to 3.76 µM.

By bioavailability is commonly meant dose-corrected exposure relative to a reference, in per cent. For `CCN(c1nc(C)nc(N2CCOCC2)n1)c1c(Br)cc(OC)cc1OC.CS(=O)(=O)O`, the bioavailability in data set [10] was determined as 20%.

As a reminder, the IC50 is the point on the concentration scale where inhibition reaches its midpoint. Turning to `COCC(COC)n1nnc2c(Nc3c(C)cc(C)cc3Cl)nc(C)cc21.CS(=O)(=O)O`, the midpoint of inhibition in data set [11], the IC50, lay at 0.075 µM. The compound further came in with an inhibitory constant (Ki) in data set [12] of 0.0033 µM. The bioavailability in [13] was found to be 59%.

Broadly, the Cmax is the highest concentration seen after dosing. Compound `COCC(COC)Nc1nc(C)nc2c(-c3ccc(Cl)cc3Cl)c(C)nn12` yielded a half-maximal inhibitory concentration (IC50) in [14] of 0.082 µM. The half-life was 33 h in data set [15], 16.5 h in [16] and 16.5 h in data set [19]. Moreover, in data set [12], the Ki is 0.0018 µM. The same compound came in with a F in [17] of 36.7%. Besides, the Cmax in data set [18] was determined as 0.24 µM. The compound further showed a bioavailability in data set [20] of 50%.

For the compound `CCCN(CC1CC1)c1nc(C)nc(Nc2c(Cl)cc(Cl)cc2Cl)c1Cl`, the Ki in data set [21] is 0.002 µM; in data set [23], greater than 10 µM. Moreover, the concentration for a half-maximal effect (EC50) in data set [22] was found to be 0.15 µM; in the data set filed under Rattus norvegicus [24], 0.07 µM.

Turning to `CCN(c1nc(C)cc(C)n1)c1c(Br)cc(OC)cc1OC`, the bioavailability in data set [25] was 4%; in data set [27], 26%. The figures for the Cmax in [26] and in [28] were 0.366 µM and 1.88 µM, respectively.

Regarding `Cc1cc(N2CCOCC2)c2ccn(-c3ccc(C(C)C)cc3Br)c2n1`, in data set [29], the Ki was determined as 0.028 µM.

With `CCCCN(CC)c1nc(C)nc2c1c(C)cn2-c1c(C)cc(C)cc1C.Cl`, in the data set with Rattus norvegicus [30], the Dose was found to be 17.8 mg/kg. In the data set listed under Rattus norvegicus [31], the ED50 came out at 13 mg/kg.
